The first test concerns HCV Replicon IB. The experiment in a line: HCV replicon assay in Huh-7 cells, genotype 1b (Rluc luciferase readout). Type of test: cell-based, hepatitis C virus. Particulars: HCV1B replicon, Huh-7 cells, 3 days; read-out: EC50_HCV1B_. For orientation: Replicon systems follow genome replication, usually without infectious particles.
For `CC(C)(C)c1cc(C2CC2)cc2c(N)cc(C(=O)NCC3CS(=O)(=O)CCN3)nc12` (centres unmarked) [Compound 334], the EC50 was 1.71 nM.

Consider `CC(C)(C)c1cc(C2CC2)cc2c(N)cc(-c3nnc(NC[C@@H]4CCCO4)o3)nc12` [Compound 359], for which the EC50 came to 1.21 nM.

The same test, now with this note: Hepatitis C virus, 72 h; 10 uM; 1b-Rluc replicon, Huh-7 cells, 3 days; read-out: Inhibition @ 10 uM in 1b-Rluc.
Broadly, the inhibition is how much of the control response was suppressed. Consider `Cc1cc(C(=O)NCCCN2CC(O)C2)nc2c(C(F)(F)F)cc(C3CC3)cc12` [Compound 126], for which the inhibition at 10 µM was found to be 90.1%.

Regarding `CNCCCNC(=O)c1cc(C)c2cc(C3CC3)cc(C(F)(F)F)c2n1` [Compound 123], the inhibition at 10 µM came to 96.7%.

For the compound `Cc1cc(-c2nnc(NCC(C)(C)CO)s2)nc2c(C(F)(F)F)cc(C3CC3)cc12` [Compound 304], the inhibition at 10 µM was determined as 96.2%.

For the compound `CCC(=O)CNC(=O)c1cc(N)c2cc(C3CC3)cc(C(F)(F)F)c2n1` [Compound 220], the inhibition at 10 µM was 100%.

`C=C(C)c1cc(C(F)(F)F)c2nc(C(=O)NCc3ccccn3)cc(C)c2c1` [Compound 156]: the inhibition at 10 µM is 99.6%.

For `COCCCNc1nnc(-c2cc(C)c3cc(OC)cc(C(F)(F)F)c3n2)o1` [Compound 274], the inhibition at 10 µM came to 99.4%.

With `Cc1cc(C(=O)NCC2(O)CC2)nc2c(C(F)(F)F)cc(C3CC3)cc12` [Compound 97], the inhibition at 10 µM came out at 98.8%.

As to `Cc1cc(C(=O)NCC2(O)CCCC2)nc2c(C(F)(F)F)cc(C3CC3)cc12` [Compound 94], the inhibition at 10 µM was determined as 99.9%.

`C#Cc1cc(C(F)(F)F)c2nc(C(=O)NCc3ccccn3)cc(C)c2c1` [Compound 146]: the inhibition at 10 µM was 99.4%.

Consider `COCCCNC(=O)CNC(=O)c1cc(C)c2cc(C3CC3)cc(C(F)(F)F)c2n1` [Compound 118], for which the inhibition at 10 µM worked out at 84.5%.

With `CCCCN(C)c1cc(C(F)(F)F)c2nc(C(=O)NCc3ccccn3)cc(C)c2c1` [Compound 176], the inhibition at 10 µM turned out to be 80.4%.

Turning to `O=C(NCC1COCCN1)c1cc(O)c2cc(C3CC3)cc(C(F)(F)F)c2n1` (centres unmarked) [Compound 217], the inhibition at 10 µM turned out to be 77%.

Take `N#Cc1cc(C(=O)NCc2ccccn2)nc2c(C(F)(F)F)cc(C3CC3)cc12` [Compound 215]: the inhibition at 10 µM amounted to 99.4%.

As for `Cc1cc(C(=O)NCCCO)nc2c(C(F)(F)F)cc(C3CC3)cc12` [Compound 121], the inhibition at 10 µM is 99.2%.

As to `Cc1cc(C(=O)NCc2cc(C(F)(F)F)ccn2)nc2c(C(F)(F)F)cc(C3CC3)cc12` [Compound 86], the inhibition at 10 µM worked out at 100%.

Regarding `Cc1cc(C(=O)NCc2ncccn2)nc2c(C(F)(F)F)cc(C3CC3)cc12` [Compound 90], the inhibition at 10 µM was determined as 100%.

With `Cc1cc(C(=O)NCC#N)nc2c(C(F)(F)F)cc(-c3ccccc3)cc12` [Compound 105], the inhibition at 10 µM was determined as 82.8%.

As to `Cc1cc(C(=O)NCC(O)Cc2ccccc2)nc2c(C(F)(F)F)cc(-c3ccccc3)cc12` (centres unmarked) [Compound 169], the inhibition at 10 µM was found to be 93%.

For the compound `Cc1cc(C(=O)NCc2ccccn2)nc2c(C(F)(F)F)cc(C#N)cc12` [Compound 144], the inhibition at 10 µM came to 57.9%.

As to `Cc1cc(C(=O)NCC2CCN2)nc2c(C(F)(F)F)cc(C3CC3)cc12` (centres unmarked) [Compound 125], the inhibition at 10 µM is 95.2%.

For the compound `Cc1cc(-c2nnc(NCCCN3CCOCC3)o2)nc2c(C(F)(F)F)cc(C3CC3)cc12` [Compound 251], the inhibition at 10 µM worked out at 80.9%.

`O=C(NCc1ccccn1)c1cc(Cl)c2cc(OC(F)(F)F)cc(C(=O)O)c2n1` [Compound 241]: the inhibition at 10 µM was 7.94%.

Turning to `Cc1cc(-c2nnc(NCCS(C)(=O)=O)o2)nc2c(C(C)(C)C)cc(C3CC3)cc12` [Compound 285], the inhibition at 10 µM worked out at 99.6%.

Regarding `COCCNC(=O)c1cc(C)c2cc(C3CC3)cc(C(F)(F)F)c2n1` [Compound 119], the inhibition at 10 µM was determined as 99.5%.

In the case of `Cc1cc(-c2nnc(NCCCCO)o2)nc2c(C(F)(F)F)cc(C3CC3)cc12` [Compound 258], the inhibition at 10 µM turned out to be 100%.

As for `Cc1cc(-c2nnc(NCc3ncc[nH]3)o2)nc2c(C(F)(F)F)cc(C3CC3)cc12` [Compound 257], the inhibition at 10 µM came to 99.7%.

`Cc1cc(-c2nnc(Nc3ccccc3)[nH]2)nc2c(C(F)(F)F)cc(C3CC3)cc12` [Compound 272]: the inhibition at 10 µM came out at 93.6%.

Staying with this test, now noted: Hepatitis C virus, Huh-7, 72 h, HCV1B replicon, Huh-7 cells, 3 days; read-out: EC50_HCV1B_.
For the compound `CC(C)(C)c1cc(OCC(F)(F)F)cc2c(Cl)cc(-c3nnc(NCC4OCCO4)o3)nc12` [Compound 522], the EC50 came to 5.85 nM.

Turning to `Cc1cc(-c2nnc(NC3CC(C)(O)C3)o2)nc2c(C(C)(C)C)cc(OCC(F)(F)F)cc12` (centres unmarked) [Compound 466], the EC50 amounted to 0.88 nM.

Turning to `Cc1cc(C(=O)NC[C@@H]2CC3(CN2)OCCO3)nc2c(C(F)(F)F)cc(OCC(F)(F)F)cc12` [Compound 511], the EC50 is 32.3 nM.

For `Cc1cc(-c2nnc(NCC3OCCS3)o2)nc2c(C(C)(C)C)cc(OCC(F)(F)F)cc12` (centres unmarked) [Compound 479], the EC50 is 1.14 nM.

For the compound `Cc1cc(-c2nnc(N[C@H]3CC[C@@H](O)C3)o2)nc2c(C(C)(C)C)cc(OCC(F)(F)F)cc12` (racemic) [Compound 476], the EC50 was determined as 1.32 nM.

Take `Cc1cc(-c2nnc(NCC3CC(F)(F)CN3)s2)nc2c(C(C)(C)C)cc(C3CC3)cc12` (centres unmarked) [Compound 381]: the EC50 was found to be 2930 nM.

In the case of `Cc1cc(C(=O)NCc2cnccn2)nc2c(-c3ccccc3)cc(C3CC3)cc12` [Compound 549], the EC50 amounted to 65.5 nM.

Consider `Cc1cc(-c2nnc(N[C@H]3C[C@@](C)(O)C3)o2)nc2c(C(C)(C)C)cc(C3CC3)cc12` [Compound 423], for which the EC50 was found to be 1.35 nM.

For the compound `CC(C)(C)c1cc(C2CC2)cc2c(N)cc(-c3nnc(NCCCCO)o3)nc12` [Compound 355], the EC50 came out at 3.24 nM.

Regarding `Cc1cc(-c2nnc(Nc3cn[nH]c3)s2)nc2c(C(F)(F)F)cc(C3CC3)cc12` [Compound 313], the EC50 came out at 10.2 nM.

With `Cc1cc(-c2nnc(NCCC(C)(C)O)o2)nc2c(C(C)(C)C)cc(OCC(F)(F)F)cc12` [Compound 449], the EC50 was 11.3 nM.

For the compound `Cc1cc(-c2nnc(NCC3CNC(=O)O3)o2)nc2c(C(C)(C)C)cc(C3CC3)cc12` (centres unmarked) [Compound 419], the EC50 amounted to 43.9 nM.

On to `COC(C)(C)c1cc(C2CC2)cc2c(C)cc(-c3nnc(NCC4OCCO4)o3)nc12` [Compound 545], for which the EC50 was 7.68 nM.

Take `CO[C@@H]1CN[C@@H](CNC(=O)c2cc(N)c3cc(C4CC4)cc(C(C)(C)C)c3n2)C1` [Compound 329]: the EC50 stood at 9.8 nM.

Turning to `CO[C@H]1CN[C@H](CNC(=O)c2cc(C)c3cc(C4CC4)cc(C(C)(C)C)c3n2)C1` [Compound 425], the EC50 amounted to 12.4 nM.

As to `CC(C)(C)c1cc(C2CC2)cc2c(N)cc(-c3nnc(NCC4OCCO4)o3)nc12` [Compound 342], the EC50 came to 2.11 nM.

Take `CC(C)(O)CCNc1nnc(-c2cc(N)c3cc(C4CC4)cc(C(F)(F)F)c3n2)s1` [Compound 374]: the EC50 is 62 nM.

Turning to `Cc1cc(-c2nnc(NCC3OCCO3)o2)nc2c(C(C)(C)F)cc(C3CC3)cc12` [Compound 546], the EC50 came to 7.48 nM.

In the case of `Cc1cc(-c2nnc(NCC3OCCO3)o2)nc2c(C3(C)SCCS3)cc(C3CC3)cc12` [Compound 544], the EC50 was 46.7 nM.

Consider `CCC(O)CNC(=O)c1cc(N)c2cc(C3CC3)cc(C(C)(C)C)c2n1` (centres unmarked) [Compound 326], for which the EC50 was found to be 13.8 nM.

For the compound `Cc1cc(-c2nnc(Nc3cn[nH]c3)s2)nc2c(C(C)(C)C)cc(C3CC3)cc12` [Compound 382], the EC50 was 14.2 nM.

Turning to `CC(C)(C)c1cc(C2CC2)cc2c(N)cc(C(=O)NCc3ccon3)nc12` [Compound 322], the EC50 stood at 5.38 nM.

Turning to `Cc1cc(-c2nnc(NCC3OCCO3)o2)nc2c(OC(F)(F)F)cc(C3CC3)cc12` [Compound 444], the EC50 was 5.88 nM.

In the case of `Cc1cc(-c2nnc(N[C@H]3C[S@+]([O-])C3)o2)nc2c(C(C)(C)C)cc(OCC(F)(F)F)cc12` [Compound 508], the EC50 amounted to 24.3 nM.

As for `CC[C@@]1(O)CN[C@H](CNC(=O)c2cc(C)c3cc(C4CC4)cc(C(C)(C)C)c3n2)C1` [Compound 430], the EC50 turned out to be 1450 nM.

For the compound `Cc1cc(-c2nnc(N[C@H]3C[C@@H](O)C3)o2)nc2c(C(C)(C)C)cc(OCCF)cc12` [Compound 535], the EC50 was 2.54 nM.

For the compound `Cc1cc(-c2nnc(Nc3cccnc3)o2)nc2c(C(C)(C)C)cc(OCC(C)(C)O)cc12` [Compound 537], the EC50 came to 69.1 nM.

As for `Cc1cc(OC(F)(F)F)c2nc(C(=O)NCc3cnccn3)cc(C)c2c1` [Compound 445], the EC50 came out at 257 nM.

On to `Cc1cc(C(=O)Nc2cn[nH]c2)nc2c(OC(F)(F)F)cc(C3CC3)cc12` [Compound 439], for which the EC50 was 1160 nM.

Take `Cc1cc(C(=O)NC[C@@H]2CS(=O)(=O)CCN2)nc2c(C(C)(C)C)cc(OCC(F)(F)F)cc12` [Compound 509]: the EC50 was found to be 3.61 nM.

Consider `CC(C)(C)c1cc(C2CC2)cc2c(N)cc(C(=O)NC[C@@H]3CC4(CN3)SCCS4)nc12` [Compound 333], for which the EC50 worked out at 6.32 nM.

On to `Cc1cc(C(=O)NC[C@@H]2CC3(CCN2)OCCO3)nc2c(C(C)(C)C)cc(C3CC3)cc12` [Compound 428], for which the EC50 came to 834 nM.

As to `CC(C)(C)c1cc(C2CC2)cc2c(N)cc(-c3nnc(NCCS(N)(=O)=O)o3)nc12` [Compound 351], the EC50 was 24.1 nM.

Turning to `Cc1cc(-c2nnc(N[C@H]3CC[C@@H](O)C3)o2)nc2c(C(C)(C)C)cc(C3CC3)cc12` [Compound 414], the EC50 was determined as 1.74 nM.

As to `Cc1cc(-c2nnc(NCC3OCCO3)o2)nc2c(C3(C)OCCO3)cc(C3CC3)cc12` [Compound 540], the EC50 stood at 36.6 nM.

As for `Cc1cc(-c2nnc(NCCCS(N)(=O)=O)s2)nc2c(C(F)(F)F)cc(C3CC3)cc12` [Compound 309], the EC50 worked out at 7090 nM.

As for `Cc1cc(-c2nnc(NC3CC(O)C3)o2)nc2c(C(C)(C)C)cc(C3CC3)cc12` (centres unmarked) [Compound 420], the EC50 was determined as 3.1 nM.

Consider `CC(=O)c1cc(C2CC2)cc2c(C)cc(-c3nnc(NCC4OCCO4)o3)nc12` [Compound 541], for which the EC50 came out at 18.6 nM.

The test is the same for the next values; noted with them: Hepatitis C virus, Huh-7, 72 h; read-out: Inhibition @ 10 uM in 1b-Rluc.
Regarding `CNC(=O)CNc1nnc(-c2cc(C)c3cc(C4CC4)cc(C(F)(F)F)c3n2)o1` [Compound 264], the inhibition at 10 µM was 99.8%.

The values above are taken from US20120053148A1, “INHIBITORS OF HEPATITIS C VIRUS” (GILEAD SCIENCES, INC., priority 2010, published 2012).
